{
  "source": "patent US20210009583A1",
  "about": "“DEUTERATED IMIDAZOPYRIDINES” (UNIVERSITY OF NOTRE DAME DU LAC, priority 2018, published 2021)",
  "key": {"[1]": {"experiment": "Single dose pharmacokinetic study after oral administration, with and without ABT pre-dosing", "type": "in vivo, female Balb/c mice", "method": "Based on MIC and acute toxicity data, two compounds ND-011176 and a deuterated analog ND-012101 were selected for evaluation in a single dose pharmacokinetic study (with and without pre-dosing of 1-Aminobenzotriazole, ABT) after oral administration to female Balb/c mice.\nAll animals were administered with the prepared test article via oral gavage at a target dose level of 200 mg/kg and at the dose volume detailed in the table 1 below. Each animal in Groups 2, 4, 6, 8 and 10 received a dose of ABT (100 mg/kg) via oral gavage two hours prior to Test Article administration.\nWhole blood samples (0.1 mL each) were collected at the first time point via submandibular vein (SMV), or an appropriate peripheral vein if it was necessary. Up to 0.5 mL of whole blood was collected at terminal blood collection via intra cardiac puncture (ICP). For animals 1-3 from each of the 10 Groups, blood samples were collected at 0.5 and 4 hours after oral dosing. […]\nThe plasma samples and dose formulation samples were analyzed by the Testing Facility to determine the concentration of the test article using LC-MS/MS. PK parameters were estimated from the plasma concentration-time data by standard non-compartmental methods utilizing suitable analysis software."}, "TB infection": {"system": "TB infection", "conditions": "cited from earlier work"}, "[2]": {"conditions": "5 h (mean of the \"8\" and \"12\" TP samples taken before euthanasia), PO 200 mg/kg + 100 mg/kg ABT"}, "[3]": {"conditions": "female, Balb/c, mouse, in vivo, po, 200 mg/kg"}, "[4]": {"conditions": "mouse, in vivo, female Balb/c mice, single oral dose 200 mg/kg, no ABT"}},
  "note": "Several values for one entry are separate records, joined by “and”; a condition that tells them apart may be missing. Equal entries are not always repeated. Where two headings read alike, the source gives them in different places.",
  "data": [
    {"smiles": "Cc1ccc2nc(C)c(C(=O)NCc3ccc(C(F)(F)F)cc3)n2c1", "note": "[ND-011176]", "values": [
      {"measurement": "Drug plasma concentration, individual mice", "setting": "[1]; 0.5 h, PO 200 mg/kg + 100 mg/kg ABT", "result": "18100 ng/mL and 22600 ng/mL"},
      {"measurement": "Drug plasma concentration, individual mice", "setting": "[1]; 0.5 h, PO 200 mg/kg, no ABT, 200 mg/kg", "result": "5140 ng/mL and 7170 ng/mL"},
      {"measurement": "Drug plasma concentration, individual mice", "setting": "[1]; 2 h, PO 200 mg/kg + 100 mg/kg ABT", "result": "29300 ng/mL and 38200 ng/mL"},
      {"measurement": "Drug plasma concentration, individual mice", "setting": "[1]; 2 h, PO 200 mg/kg, no ABT, 200 mg/kg", "result": "5280 ng/mL and 4450 ng/mL"},
      {"measurement": "Drug plasma concentration, individual mice", "setting": "[1]; 4 h, PO 200 mg/kg + 100 mg/kg ABT", "result": "34700 ng/mL and 44900 ng/mL"},
      {"measurement": "Drug plasma concentration, individual mice", "setting": "[1]; 4 h, PO 200 mg/kg, no ABT, 200 mg/kg", "result": "432 ng/mL and 507 ng/mL"},
      {"measurement": "Drug plasma concentration, Average", "setting": "[1]; [2]", "result": "41617^^ ng/mL"},
      {"measurement": "Drug plasma concentration, individual mice", "setting": "[1]; [2]", "result": "39200^^ ng/mL and 41600^^ ng/mL and 44050^^ ng/mL"},
      {"measurement": "Drug plasma concentration, individual mice", "setting": "[1]; 8 h, PO 200 mg/kg, no ABT, 200 mg/kg", "result": "110 ng/mL and 25 ng/mL and 88.2 ng/mL"},
      {"measurement": "Drug plasma concentration, individual mice", "setting": "[1]; 12 h, PO 200 mg/kg, no ABT, 200 mg/kg", "result": "BQL and 28.8 ng/mL"},
      {"measurement": "Drug plasma concentration, individual mice", "setting": "[1]; 24 h, PO 200 mg/kg, no ABT, 200 mg/kg", "result": "BQL"},
      {"measurement": "% AUC Extrap", "setting": "[1]; female Balb/c mice, single oral dose 200 mg/kg, no ABT", "result": 0.00, "unit": "%"},
      {"measurement": "concentration at 0.5 h", "setting": "[1]; female, Balb/c, mouse, in vivo, 0.5 h, PO 200 mg/kg + 100 mg/kg ABT, read-out: Drug plasma concentration, Average", "result": 20100, "unit": "ng/mL"},
      {"measurement": "concentration at 0.5 h", "setting": "[1]; female, Balb/c, mouse, in vivo, 0.5 h, PO 200 mg/kg + 100 mg/kg ABT, read-out: Drug plasma concentration, individual mice", "result": 19600, "unit": "ng/mL"},
      {"measurement": "concentration at 2 h", "setting": "[1]; female, Balb/c, mouse, in vivo, 2 h, PO 200 mg/kg + 100 mg/kg ABT, read-out: Drug plasma concentration, Average", "result": 34600, "unit": "ng/mL"},
      {"measurement": "concentration at 2 h", "setting": "[1]; female, Balb/c, mouse, in vivo, 2 h, PO 200 mg/kg + 100 mg/kg ABT, read-out: Drug plasma concentration, individual mice", "result": 36400, "unit": "ng/mL"},
      {"measurement": "concentration at 4 h", "setting": "[1]; female, Balb/c, mouse, in vivo, 4 h, PO 200 mg/kg + 100 mg/kg ABT, read-out: Drug plasma concentration, Average", "result": 44800, "unit": "ng/mL"},
      {"measurement": "concentration at 4 h", "setting": "[1]; female, Balb/c, mouse, in vivo, 4 h, PO 200 mg/kg + 100 mg/kg ABT, read-out: Drug plasma concentration, individual mice", "result": 54800, "unit": "ng/mL"},
      {"measurement": "AUC(0-x)/Dose", "setting": "[1]; [3]", "result": 78.4, "unit": "ng·h/mL/mg/kg"},
      {"measurement": "AUC(0-∞)/Dose", "setting": "[1]; [3]", "result": 78.4, "unit": "ng·h/mL/mg/kg"},
      {"measurement": "Cmax/Dose", "setting": "[1]; [3]", "result": 34, "unit": "ng/mL/mg/kg"},
      {"measurement": "concentration at 0.5 h", "setting": "[1]; female, Balb/c, mouse, in vivo, po, 200 mg/kg, 0.5 h, PO 200 mg/kg, no ABT, read-out: Drug plasma concentration, Average", "result": 6730, "unit": "ng/mL"},
      {"measurement": "concentration at 0.5 h", "setting": "[1]; female, Balb/c, mouse, in vivo, po, 200 mg/kg, 0.5 h, PO 200 mg/kg, no ABT, read-out: Drug plasma concentration, individual mice", "result": 7880, "unit": "ng/mL"},
      {"measurement": "concentration at 2 h", "setting": "[1]; female, Balb/c, mouse, in vivo, po, 200 mg/kg, 2 h, PO 200 mg/kg, no ABT, read-out: Drug plasma concentration, Average", "result": 6100, "unit": "ng/mL"},
      {"measurement": "concentration at 2 h", "setting": "[1]; female, Balb/c, mouse, in vivo, po, 200 mg/kg, 2 h, PO 200 mg/kg, no ABT, read-out: Drug plasma concentration, individual mice", "result": 8580, "unit": "ng/mL"},
      {"measurement": "concentration at 4 h", "setting": "[1]; female, Balb/c, mouse, in vivo, po, 200 mg/kg, 4 h, PO 200 mg/kg, no ABT, read-out: Drug plasma concentration, Average", "result": 600, "unit": "ng/mL"},
      {"measurement": "concentration at 4 h", "setting": "[1]; female, Balb/c, mouse, in vivo, po, 200 mg/kg, 4 h, PO 200 mg/kg, no ABT, read-out: Drug plasma concentration, individual mice", "result": 861, "unit": "ng/mL"},
      {"measurement": "concentration at 8 h", "setting": "[1]; female, Balb/c, mouse, in vivo, po, 200 mg/kg, 8 h, PO 200 mg/kg, no ABT, read-out: Drug plasma concentration, Average", "result": 74, "unit": "ng/mL"},
      {"measurement": "concentration at 12 h", "setting": "[1]; female, Balb/c, mouse, in vivo, po, 200 mg/kg, 12 h, PO 200 mg/kg, no ABT, read-out: Drug plasma concentration, Average", "result": 34, "unit": "ng/mL"},
      {"measurement": "concentration at 12 h", "setting": "[1]; female, Balb/c, mouse, in vivo, po, 200 mg/kg, 12 h, PO 200 mg/kg, no ABT, read-out: Drug plasma concentration, individual mice", "result": 40.1, "unit": "ng/mL"},
      {"measurement": "concentration at 24 h", "setting": "[1]; female, Balb/c, mouse, in vivo, po, 200 mg/kg, 24 h, PO 200 mg/kg, no ABT, read-out: Drug plasma concentration, Average", "result": 8, "unit": "ng/mL"},
      {"measurement": "concentration at 24 h", "setting": "[1]; female, Balb/c, mouse, in vivo, po, 200 mg/kg, 24 h, PO 200 mg/kg, no ABT, read-out: Drug plasma concentration, individual mice", "result": 8.09, "unit": "ng/mL"},
      {"measurement": "Cmax", "setting": "[1]; mouse, in vivo, female Balb/c mice, single oral dose 200 mg/kg, ABT 100 mg/kg PO 2 h before, manually added from the TA concentration data", "result": 44800, "unit": "ng/mL"},
      {"measurement": "AUC(0-inf)", "setting": "[1]; [4]", "result": 15700, "unit": "ng·h/mL"},
      {"measurement": "Cmax", "setting": "[1]; [4]", "result": 6730, "unit": "ng/mL"},
      {"measurement": "Tmax", "setting": "[1]; [4]", "result": 0.5, "unit": "h"},
      {"measurement": "half-life", "setting": "[1]; [4]", "result": 1.7, "unit": "h"},
      {"measurement": "AUC", "setting": "[1]; mouse, in vivo, female Balb/c mice, single oral dose 200 mg/kg, no ABT, read-out: AUC(0-x)", "result": 15700, "unit": "ng·h/mL"},
      {"measurement": "cfu reduction with respect to non-treated controls", "setting": "TB infection; 300 mg/kg", "result": 2, "unit": "log cfu"},
      {"measurement": "cfu reduction with respect to non-treated controls", "setting": "TB infection; 500 mg/kg", "result": 2, "unit": "log cfu"},
      {"measurement": "Signs of toxicity", "setting": "TB infection; any of the administered doses", "result": "No signs of toxicity"}
    ]}
  ]
}
